Laboratory results as given in article PMC9233935 (Journal of medicinal chemistry, 2022).
Values after ≈ are worked out from the molar mass of the structure shown. Like-named read-outs stand apart in the source and are kept apart here.

Key:
S. aureus ATTC 25923 = experiment: microbe, parasite or virus in culture; conditions: Staphylococcus aureus, ATTC25923, read-out: Sau MIC
Mtb gyrase = Mtb gyrase (Mycobacterium tuberculosis, UniProt P9WG45+P9WG47); experiment: biochemical; format: biochemical
Mtb gyrase, sequence (P9WG45 whole entry, looked up): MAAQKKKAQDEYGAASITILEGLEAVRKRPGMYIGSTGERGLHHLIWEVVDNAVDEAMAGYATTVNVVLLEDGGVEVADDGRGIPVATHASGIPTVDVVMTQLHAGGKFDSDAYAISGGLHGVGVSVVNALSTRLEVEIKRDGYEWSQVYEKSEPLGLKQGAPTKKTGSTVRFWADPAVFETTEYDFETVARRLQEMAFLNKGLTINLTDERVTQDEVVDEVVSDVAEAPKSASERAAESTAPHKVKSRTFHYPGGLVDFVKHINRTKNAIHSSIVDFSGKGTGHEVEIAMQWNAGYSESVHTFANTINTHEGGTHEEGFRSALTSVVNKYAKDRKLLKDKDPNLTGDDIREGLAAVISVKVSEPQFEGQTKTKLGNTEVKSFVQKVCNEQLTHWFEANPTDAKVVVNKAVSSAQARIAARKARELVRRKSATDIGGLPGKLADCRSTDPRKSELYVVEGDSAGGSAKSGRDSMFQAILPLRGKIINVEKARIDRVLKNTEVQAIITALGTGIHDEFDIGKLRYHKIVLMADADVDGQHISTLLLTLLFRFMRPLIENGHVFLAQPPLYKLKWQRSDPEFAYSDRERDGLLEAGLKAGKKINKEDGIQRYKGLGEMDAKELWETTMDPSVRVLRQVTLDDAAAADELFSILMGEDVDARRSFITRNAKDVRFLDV
Mtb gyrase, sequence (P9WG47 whole entry, looked up): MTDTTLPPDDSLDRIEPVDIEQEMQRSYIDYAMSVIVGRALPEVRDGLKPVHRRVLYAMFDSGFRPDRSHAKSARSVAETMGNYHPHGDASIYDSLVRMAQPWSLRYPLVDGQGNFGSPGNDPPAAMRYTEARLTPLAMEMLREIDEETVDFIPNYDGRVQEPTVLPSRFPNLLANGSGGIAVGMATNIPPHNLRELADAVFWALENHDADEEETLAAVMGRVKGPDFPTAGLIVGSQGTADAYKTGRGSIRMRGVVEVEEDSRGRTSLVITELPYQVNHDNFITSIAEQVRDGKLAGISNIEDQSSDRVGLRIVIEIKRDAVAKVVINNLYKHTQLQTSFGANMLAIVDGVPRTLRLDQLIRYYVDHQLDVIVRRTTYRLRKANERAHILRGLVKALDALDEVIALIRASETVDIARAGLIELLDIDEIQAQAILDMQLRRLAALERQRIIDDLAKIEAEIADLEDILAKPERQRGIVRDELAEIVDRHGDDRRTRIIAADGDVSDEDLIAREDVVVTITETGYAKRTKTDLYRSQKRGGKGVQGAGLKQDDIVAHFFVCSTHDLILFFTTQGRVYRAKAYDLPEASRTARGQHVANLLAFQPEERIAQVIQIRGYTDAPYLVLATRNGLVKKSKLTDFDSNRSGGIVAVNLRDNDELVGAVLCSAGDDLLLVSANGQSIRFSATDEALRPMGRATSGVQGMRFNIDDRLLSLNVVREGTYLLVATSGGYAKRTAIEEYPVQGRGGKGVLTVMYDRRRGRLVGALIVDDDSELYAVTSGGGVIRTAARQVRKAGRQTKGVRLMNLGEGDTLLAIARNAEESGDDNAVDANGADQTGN

M. tuberculosis H37Rv = experiment: microbe, parasite or virus in culture; format: cell-based, Mycobacterium tuberculosis; conditions: for MIC: Mycobacterium tuberculosis, H37RV, read-out: Mtb MIC

C[C@@H]1CN2c3c(cc4c(N5C[C@@H](O)[C@@H](O)C5)noc4c3F)CC3(C(=O)NC(=O)NC3=O)[C@H]2[C@H](C)O1 [Compound 12, (2R,4S,4aS)-8-((3R,4S)-3,4-dihydroxypyrrolidin-1-yl)-11-fluoro-2,4-dimethyl-1,2,4,4a-tetrahydro-2’H,6H-spiro[isoxazolo[4,5-g][1,4]oxazino[4,3-a]quinoline-5,5’-pyrimidine]-2’,4’,6’(1’H,3’H)-trione]
MIC (S. aureus ATTC 25923): > 125 µM

C[C@@H]1CN2c3c(cc4c(N5CC[C@@H](O)C5)noc4c3F)CC3(C(=O)NC(=O)NC3=O)[C@H]2[C@H](C)O1 [Compound 9, (2R,4S,4aS)-11-fluoro-8-((R)-3-hydroxypyrrolidin-1-yl)-2,4-dimethyl-1,2,4,4a-tetrahydro-2’H,6H-spiro[isoxazolo[4,5-g][1,4]oxazino[4,3-a]quinoline-5,5’-pyrimidine]-2’,4’,6’(1’H,3’H)-trione]
MIC (S. aureus ATTC 25923): 64 µM (≈ 30.3 µg/mL)

C[C@@H]1CN2c3c(cc4c(N5CCC[C@@H](O)C5)noc4c3F)CC3(C(=O)NC(=O)NC3=O)[C@H]2[C@H](C)O1 [Compound 22, (2R,4S,4aS)-11-fluoro-8-((R)-3-hydroxypiperidin-1-yl)-2,4-dimethyl-1,2,4,4a-tetrahydro-2’H,6H-spiro[isoxazolo[4,5-g][1,4]oxazino[4,3-a]quinoline-5,5’-pyrimidine]-2’,4’,6’(1’H,3’H)-trione]
MIC (S. aureus ATTC 25923): 94 µM (≈ 45.8 µg/mL)

CC(=O)N1[C@H](C)CN2c3c(cc4c(N5C(=O)OC[C@@H]5C)noc4c3F)CC3(C(=O)NC(=O)NC3=O)[C@H]2[C@@H]1C [Compound 36, (2R,4S,4aS)-3-acetyl-11-fluoro-2,4-dimethyl-8-((S)-4-methyl-2-oxooxazolidin-3-yl)-2,3,4,4a-tetrahydro-1H,2’H,6H-spiro[isoxazolo[4,5-g]pyrazino[1,2-a]quinoline-5,5’-pyrimidine]-2’,4’,6’(1’H,3’H)-trione]
IC50 (Mtb gyrase): > 1000 µM

C[C@@H]1CN2c3c(cc4c(N5C(=O)OC[C@@H]5C)noc4c3F)CC3(C(=O)NC(=O)NC3=O)[C@H]2[C@H](C)N1O [Compound 35, (2R,4S,4aS)-11-fluoro-3-hydroxy-2,4-dimethyl-8-((S)-4-methyl-2-oxooxazolidin-3-yl)-2,3,4,4a-tetrahydro-1H,2’H,6H-spiro[isoxazolo[4,5-g]pyrazino[1,2-a]quinoline-5,5’-pyrimidine]-2’,4’,6’(1’H,3’H)-trione]
IC50 (Mtb gyrase): 207 µM

C[C@@H]1CN2c3c(cc4c(OC[C@@H]5CCC(=O)N5)noc4c3F)CC3(C(=O)NC(=O)NC3=O)[C@H]2[C@H](C)N1C#N [Compound 42, (2R,4S,4aS)-11-fluoro-2,4-dimethyl-2’,4’,6’-trioxo-8-(((S)-5-oxopyrrolidin-2-yl)methoxy)-1,1’,2,3’,4,4a,4’,6’-octahydro-2’H,3H,6H-spiro[isoxazolo[4,5-g]pyrazino[1,2-a]quinoline-5,5’-pyrimidine]-3-carbonitrile]
IC50 (Mtb gyrase): 2.6 µM

C[C@@H]1CN2c3c(cc4c(N5CC[C@@](C)(O)C5)noc4c3F)CC3(C(=O)NC(=O)NC3=O)[C@H]2[C@H](C)O1 [Compound 15, 11-fluoro-8-(3-hydroxy-3-methylpyrrolidin-1-yl)-2,4-dimethyl-1,2,4,4a-tetrahydro-2’H,6H-spiro[isoxazolo[4,5-g][1,4]oxazino[4,3-a]quinoline-5,5’-pyrimidine]-2’,4’,6’(1’H,3’H)-trione]
MIC (M. tuberculosis H37Rv; 192 h): > 125 µM

C[C@@H]1CN2c3c(cc4c(N5CC[C@H](C#N)C5)noc4c3F)CC3(C(=O)NC(=O)NC3=O)[C@H]2[C@H](C)O1 [Compound 19, (S)-1-((2R,4S,4aS)-11-fluoro-2,4-dimethyl-2’,4’,6’-trioxo-1,1’,2,3’,4,4a,4’,6’-octahydro-2’H,6H-spiro[isoxazolo[4,5-g][1,4]oxazino[4,3-a]quinoline-5,5’-pyrimidin]-8-yl)pyrrolidine-3-carbonitrile]
Mtb gyrase IC50 fold higher (less potent) than moxifloxacin (Mtb gyrase): ≤ 2 fold

C[C@@H]1CN2c3c(cc4c(N5CC[C@H](CO)C5)noc4c3F)CC3(C(=O)NC(=O)NC3=O)[C@H]2[C@H](C)O1 [Compound 14, (2R,4S,4aS)-11-fluoro-8-((S)-3-(hydroxymethyl)pyrrolidin-1-yl)-2,4-dimethyl-1,2,4,4a-tetrahydro-2’H,6H-spiro[isoxazolo[4,5-g][1,4]oxazino[4,3-a]quinoline-5,5’-pyrimidine]-2’,4’,6’(1’H,3’H)-trione]
Mtb gyrase IC50 fold higher (less potent) than moxifloxacin (Mtb gyrase): ≤ 2 fold

Cc1nnc(-c2noc3c(F)c4c(cc23)CC2(C(=O)NC(=O)NC2=O)[C@H]2[C@H](C)[C@@H](O)[C@H](C)CN42)o1 [Compound 45, (2R,3S,4S,4aR)-11-fluoro-3-hydroxy-2,4-dimethyl-8-(5-methyl-1,3,4-oxadiazol-2-yl)-2,3,4,4a-tetrahydro-1H,2’H,6H-spiro[isoxazolo[4,5-g]pyrido[1,2-a]quinoline-5,5’-pyrimidine]-2’,4’,6’(1’H,3’H)-trione]
fold reduction in Mtb activity relative to matched pair 5 (M. tuberculosis H37Rv): 10 fold

C[C@@H]1CN2c3c(cc4c(-n5cncn5)noc4c3F)CC3(C(=O)NC(=O)NC3=O)[C@H]2[C@H](C)N1C#N [Compound 39, 11-fluoro-2,4-dimethyl-2’,4’,6’-trioxo-8-(1H-1,2,4-triazol-1-yl)-1,1’,2,3’,4,4a,4’,6’-octahydro-2’H,3H,6H-spiro[isoxazolo[4,5-g]pyrazino[1,2-a]quinoline-5,5’-pyrimidine]-3-carbonitrile]
fold more active against Mtb than matched pair 7 (M. tuberculosis H37Rv): 2 fold | MIC (M. tuberculosis H37Rv; 192 h): 0.9 µM (≈ 0.431 µg/mL)

C[C@@H]1CN2c3c(cc4c(OC[C@H]5COC(=O)N5)noc4c3F)CC3(C(=O)NC(=O)NC3=O)[C@H]2[C@H](C)O1 [Compound 29, (2R,4S,4aS)-11-fluoro-2,4-dimethyl-8-(((S)-2-oxooxazolidin-4-yl)methoxy)-1,2,4,4a-tetrahydro-2’H,6H-spiro[isoxazolo[4,5-g][1,4]oxazino[4,3-a]quinoline-5,5’-pyrimidine]-2’,4’,6’(1’H,3’H)-trione]
Mtb MIC (M. tuberculosis H37Rv): 2.0 µM | MIC (M. tuberculosis H37Rv): 2 µM (≈ 1.01 µg/mL)

C[C@@H]1CN2c3c(cc4c(N5C(=O)OC[C@@H]5C)noc4c3F)CC3(C(=O)NC(=O)NC3=O)[C@H]2[C@H](C)O1 [Zoliflodacin 4, zoliflodacin, reference compound]
MIC (M. tuberculosis H37Rv): 7 µM (≈ 3.41 µg/mL)

C[C@@H]1CN2c3c(cc4c(OC[C@@H]5CCC(=O)N5C)noc4c3F)CC3(C(=O)NC(=O)NC3=O)[C@H]2[C@H](C)O1 [Compound 25, (2R,4S,4aS)-11-fluoro-2,4-dimethyl-8-(((S)-1-methyl-5-oxopyrrolidin-2-yl)methoxy)-1,2,4,4a-tetrahydro-2’H,6H-spiro[isoxazolo[4,5-g][1,4]oxazino[4,3-a]quinoline-5,5’-pyrimidine]-2’,4’,6’(1’H,3’H)-trione]
fold less active against Mtb than 23 (M. tuberculosis H37Rv): 4 fold

C[C@@H]1CN2c3c(cc4c(OC[C@@H]5CCC(=O)O5)noc4c3F)CC3(C(=O)NC(=O)NC3=O)[C@H]2[C@H](C)O1 [Compound 26, (2R,4S,4aS)-11-fluoro-2,4-dimethyl-8-(((S)-5-oxotetrahydrofuran-2-yl)methoxy)-1,2,4,4a-tetrahydro-2’H,6H-spiro[isoxazolo[4,5-g][1,4]oxazino[4,3-a]quinoline-5,5’-pyrimidine]-2’,4’,6’(1’H,3’H)-trione]
fold less active against Mtb than 23 (M. tuberculosis H37Rv): 2- to 4 fold

Cc1nnc(-c2noc3c(F)c4c(cc23)CC2(C(=O)NC(=O)NC2=O)[C@H]2[C@H](C)O[C@H](C)CN42)o1 [Methyl-oxadiazole 5, reference compound]
fold more potent as inhibitor of Mtb gyrase than moxifloxacin (Mtb gyrase): 5 fold | fold less active against Mtb than moxifloxacin (M. tuberculosis H37Rv): 10 fold | MIC (M. tuberculosis H37Rv): 1.7 µM (≈ 0.8 µg/mL)

C[C@@H]1CN2c3c(cc4c(OCC[C@@H]5CCC(=O)N5)noc4c3F)CC3(C(=O)NC(=O)NC3=O)[C@H]2[C@H](C)O1 [Compound 32, (2R,4S,4aS)-11-fluoro-2,4-dimethyl-8-(2-((S)-5-oxopyrrolidin-2-yl)ethoxy)-1,2,4,4a-tetrahydro-2’H,6H-spiro[isoxazolo[4,5-g][1,4]oxazino[4,3-a]quinoline-5,5’-pyrimidine]-2’,4’,6’(1’H,3’H)-trione]
fold less active against Mtb than 23 (M. tuberculosis H37Rv): ~ 4 fold

C[C@@H]1CN2c3c(cc4c(N5C(=O)OC[C@@H]5C)noc4c3F)CC3(C(=O)NC(=O)NC3=O)[C@H]2[C@H](C)N1C#N [Compound 38, (2R,4S,4aS)-11-fluoro-2,4-dimethyl-8-((S)-4-methyl-2-oxooxazolidin-3-yl)-2’,4’,6’-trioxo-1,1’,2,3’,4,4a,4’,6’-octahydro-2’H,3H,6H-spiro[isoxazolo[4,5-g]pyrazino[1,2-a]quinoline-5,5’-pyrimidine]-3-carbonitrile]
fold more active against Mtb than matched pair zoliflodacin (M. tuberculosis H37Rv): ~2 fold

C[C@@H]1CN2c3c(cc4c(OC[C@H]5CNC(=O)C5)noc4c3F)CC3(C(=O)NC(=O)NC3=O)[C@H]2[C@H](C)O1 [Compound 31, (2R,4S,4aS)-11-fluoro-2,4-dimethyl-8-(((R)-5-oxopyrrolidin-3-yl)methoxy)-1,2,4,4a-tetrahydro-2’H,6H-spiro[isoxazolo[4,5-g][1,4]oxazino[4,3-a]quinoline-5,5’-pyrimidine]-2’,4’,6’(1’H,3’H)-trione]
Mtb MIC (M. tuberculosis H37Rv): 2.0 µM | MIC (M. tuberculosis H37Rv): 2 µM (≈ 1 µg/mL)

C[C@@H]1CN2c3c(cc4c(OC[C@H]5CCC(=O)O5)noc4c3F)CC3(C(=O)NC(=O)NC3=O)[C@H]2[C@H](C)O1 [Compound 27, (2R,4S,4aS)-11-fluoro-2,4-dimethyl-8-(((R)-5-oxotetrahydrofuran-2-yl)methoxy)-1,2,4,4a-tetrahydro-2’H,6H-spiro[isoxazolo[4,5-g][1,4]oxazino[4,3-a]quinoline-5,5’-pyrimidine]-2’,4’,6’(1’H,3’H)-trione]
fold less active against Mtb than 23 (M. tuberculosis H37Rv): 2- to 4 fold

C[C@@H]1CN2c3c(cc4c(N5CC[C@H](N)C5)noc4c3F)CC3(C(=O)NC(=O)NC3=O)[C@H]2[C@H](C)O1 [Compound 16, (2R,4S,4aS)-8-((S)-3-aminopyrrolidin-1-yl)-11-fluoro-2,4-dimethyl-1,2,4,4a-tetrahydro-2’H,6H-spiro[isoxazolo[4,5-g][1,4]oxazino[4,3-a]quinoline-5,5’-pyrimidine]-2’,4’,6’(1’H,3’H)-trione]
Mtb gyrase IC50 fold higher (less potent) than moxifloxacin (Mtb gyrase): around 2 fold | fold higher Mtb MIC compared to 8 (M. tuberculosis H37Rv): 9 to16 fold
